Values of other authors in US20110313054A1, “BRANCHED COPOLYMERS, COMPOSITION AND USES” (Unilever PLC, priority 2009, published 2011).

Details: in water at 20° C.

Row | Structure (SMILES) | Solubility in water w/w at 20° C.
1 | C=C(C)C(=O)OCC(C)O (centres unmarked) [2-Hydroxypropyl methacrylate] | 2.17 w/w
2 | C=C(C)C(=O)OCCO [2-Hydroxyethyl methacrylate] | 3.00 w/w
3 | C=CC(=O)OCC(C)O (centres unmarked) [2-Hydroxypropyl acrylate] | Soluble
4 | C=C(C)C(=O)O [Methacrylic acid] | Soluble
5 | C=CC(=O)OCCO [2-Hydroxyethyl acrylate] | soluble
